Experimental data published in patent US12583866B2, “Pyrido[2,3-b][1,4]oxazines or tetrahydropyrido[2,3-b][1,4]oxazepines as IAP antagonists” (BEIGENE, LTD., priority 2020, dated 2026).
Where a name gives a salt, the structure may show the parent alone.

What was measured:
[1] = target: T1, recombinant human cIAP1-BIR3 protein (Homo sapiens, UniProt Q13490); assay: Recombinant human c-IAP1-BIR3 biochemical assay (HTRF, peptide displacement); conditions: 1.2 nM cIAP1-BIR3, 3 nM AbuRPF-K(5-Fam)-NH2 peptide, read-out: Protein binding IC50 (nM) c-IAP1
T1 construct: recombinant human cIAP1-BIR3 protein; purchased Reaction biology APT-11-370
How it was run: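 1.2 nM cIAP1-BIR3 preincubated 1 h at room temperature with compound (10 points, 4-fold, top 10 uM) in 20 mM HEPES pH 7.5, 50 mM NaCl, 1 mM DTT; 3 nM AbuRPF-K(5-Fam)-NH2 then added for 1 h, then anti-6His Tb cryptate for 1 h. 520/490 nm ratio; IC50 by four-parameter logistic fit.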

[2] = target: T2, recombinant human cIAP2-BIR3 protein (Homo sapiens, UniProt Q13489); assay: Recombinant human c-IAP2-BIR3 biochemical assay (HTRF, peptide displacement); conditions: 3.7 nM cIAP2-BIR3, 3.7 nM AbuRPF-K(5-Fam)-NH2 peptide, read-out: Protein binding IC50 (nM) c-IAP2
T2 construct: recombinant human cIAP2-BIR3 protein; purchased Reaction biology APT-11-372
How it was run: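 3.7 nM protein pre-incubated 1 h at room temperature with compounds (top 10 uM, 4-fold, 10 points) in 20 mM HEPES pH 7.5, 50 mM NaCl, 0.005% Tween-20, 1 mM DTT. Then 3.7 nM AbuRPF-K(5-Fam)-NH2 for 1 h, then anti-6His Tb cryptate 1 h. IC50 from 520/490 nm HTRF ratio, four-parameter logistic fit.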

[3] = target: T3, recombinant human XIAP-BIR3 protein (Homo sapiens, UniProt P98170); assay: Recombinant human XIAP-BIR3 biochemical assay (HTRF, peptide displacement); conditions: 3.7 nM XIAP-BIR3, 7.6 nM AbuRPF-K(5-Fam)-NH2 peptide, read-out: Protein binding IC50 (nM) XIAP
T3 construct: recombinant human XIAP-BIR3 protein; purchased Reaction biology APT-11-374
How it was run: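 3.7 nM His-tagged XIAP-BIR3 was preincubated 1 h RT with compound (top 10 µM, 4-fold, 10 points) in 20 mM HEPES pH 7.5, 50 mM NaCl, 0.005% Tween-20, 1 mM DTT. 7.6 nM AbuRPF-K(5-Fam)-NH2 peptide was then added, followed by anti-6His Tb cryptate, 1 h each. HTRF 520/490 nm ratio; four-parameter logistic IC50.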

T2 sequence (Q13489 238-349 limits assumed): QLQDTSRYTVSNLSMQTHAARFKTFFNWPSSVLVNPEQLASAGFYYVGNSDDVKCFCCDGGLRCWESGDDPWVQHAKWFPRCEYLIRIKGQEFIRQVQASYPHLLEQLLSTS
T1 sequence (Q13490 253-363 limits assumed): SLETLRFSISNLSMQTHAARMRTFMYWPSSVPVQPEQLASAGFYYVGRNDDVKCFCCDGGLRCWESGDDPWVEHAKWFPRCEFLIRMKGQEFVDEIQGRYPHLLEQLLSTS
T3 sequence (P98170 241-356 limits assumed): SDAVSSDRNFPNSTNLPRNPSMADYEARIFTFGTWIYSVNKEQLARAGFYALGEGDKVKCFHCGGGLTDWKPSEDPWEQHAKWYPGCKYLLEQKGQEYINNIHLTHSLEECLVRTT

Row | SMILES | IC50 [1] [nM] | IC50 [2] [nM] | IC50 [3] [nM]
1 | C[C@@H]1CN(CC(=O)N2CCCOc3ncc(Cc4ccc(F)cc4)cc32)[C@@H](CN2CCOC[C@H]2C)CN1 [Compound 18, 1-(8-(4-fluorobenzyl)-3,4-dihydropyrido[2,3-b][1,4]oxazepin-1(2H)-yl)-2-((2R,5R)-5-methyl-2-(((R)-3-methylmorpholino)methyl)piperazin-1-yl)ethan-1-one] | > 1000 | > 1000 | > 1000
2 | COCCNC(=O)c1nc2c(cc1Cc1ccc(F)cc1)N(C(=O)CN1C[C@@H](C)NC[C@@H]1CN1[C@H](C)COC[C@H]1C)[C@@H](C)CO2 [Example 66, (S)-1-(2-((2R,5R)-2-(((3R,5R)-3,5-dimethylmorpholino)methyl)-5-methylpiperazin-1-yl)acetyl)-7-(4-fluorobenzyl)-N-(2-methoxyethyl)-2-methyl-2,3-dihydro-1H-pyrido[2,3-b][1,4]oxazine-6-carboxamide] | 0.25 | 0.52 | 5.9
3 | C[C@@H]1CN(CC(=O)N2CCOc3ncc(Cc4ccc(F)cc4)cc32)[C@@H](CN2CCOC[C@H]2C)CN1 [Compound 2, 1-(7-(4-fluorobenzyl)-2,3-dihydro-1H-pyrido[2,3-b][1,4]oxazin-1-yl)-2-((2R,5R)-5-methyl-2-(((R)-3-methylmorpholino)methyl)piperazin-1-yl)ethan-1-one formate] | 0.9 | 2.5 | 24
4 | CCOC[C@@H]1COCCN1C[C@H]1CN[C@H](C)CN1CC(=O)N1c2cc(Cc3ccc(F)cc3)c(CO)nc2OC[C@@H]1C [Compound 53] | 0.46 | 1.2 | 12
5 | C[C@@H]1CN(CC(=O)N2c3cc(Cc4ccc(F)cc4)c(C(=O)NCCN4CCOCC4)nc3OC[C@@H]2C)C(CN2[C@H](C)COC[C@H]2C)CN1 (stereo partly drawn) [Example 75, (5)-1-(2-((2R,5R)-2-(((3R,5R)-3,5-dimethylmorpholino)methyl)-5-methylpiperazin-1-yl)acetyl)-7-(4-fluorobenzyl)-2-methyl-N-(2-morpholinoethyl)-2,3-dihydro-1H-pyrido[2,3-b][1,4]oxazine-6-carboxamide] | 0.2 | 0.54 | 6.5
6 | COC[C@H]1COc2nc(CO)c(Cc3ccc(F)cc3)cc2N1C(=O)CN1C[C@@H](C)NC[C@@H]1CN1[C@H](C)COC[C@H]1C [Compound 58, 2-((2R,5R)-2-(((3R,5R)-3,5-dimethylmorpholino)methyl)-5-methylpiperazin-1-yl)-1-((S)-7-(4-fluorobenzyl)-6-(hydroxymethyl)-2-(methoxymethyl)-2,3-dihydro-1H-pyrido[2,3-b][1,4]oxazin-1-yl)ethan-1-one] | 0.11 | 0.17 | 9.5
7 | C[C@@H]1CN(CC(=O)N2c3cc(Cc4ccc(F)cc4)c(C(=O)NCCO)nc3OC[C@@H]2C)[C@@H](CN2[C@H](C)COC[C@H]2C)CN1 [Example 73, (S)-1-(2-((2R,5R)-2-(((3R,5R)-3,5-dimethylmorpholino)methyl)-5-methylpiperazin-1-yl)acetyl)-7-(4-fluorobenzyl)-N-(2-hydroxyethyl)-2-methyl-2,3-dihydro-1H-pyrido[2,3-b][1,4]oxazine-6-carboxamide] | 0.18 | 0.29 | 4.3
8 | C[C@@H]1CN(CC(=O)N2CCOc3ncc(Cc4ccc(F)cc4)cc32)[C@@H](CN2C[C@@H]3C[C@H]2CO3)CN1 [Compound 13, 2-((2R,5R)-2-(((1S,45)-2-oxa-5-azabicyclo[2.2.1]heptan-5-yl)methyl)-5-methylpiperazin-1-yl)-1-(7-(4-fluorobenzyl)-2,3-dihydro-1H-pyrido[2,3-b][1,4]oxazin-1-yl)ethan-1-one] | 1.02 | 1.5 | 24
9 | C[C@@H]1CN(CC(=O)N2c3cc(Cc4ccc(F)cc4)cnc3OC[C@@H]2Cc2ccccc2)[C@@H](CN2CCOC[C@H]2C)CN1 [Compound 29, 1-((S)-2-benzyl-7-(4-fluorobenzyl)-2,3-dihydro-1H-pyrido[2,3-b][1,4]oxazin-1-yl)-2-((2R,5R)-5-methyl-2-(((R)-3-methylmorpholino)methyl)piperazin-1-yl)ethan-1-one] | 0.24 | 0.32 | 22
10 | C[C@@H]1CN(CC(=O)N2c3cc(Cc4ccc(F)cc4)c(C(=O)NC[C@H]4CCCO4)nc3OC[C@@H]2C)[C@@H](CN2[C@H](C)COC[C@H]2C)CN1 [Compound 94, (S)-1-(2-((2R,5R)-2-(((3R,5R)-3,5-dimethylmorpholino)methyl)-5-methylpiperazin-1-yl)acetyl)-7-(4-fluorobenzyl)-2-methyl-N—(((R)-tetrahydrofuran-2-yl)methyl)-2,3-dihydro-1H-pyrido[2,3-b][1,4]oxazine-6-carboxamide] | 0.16 | 0.28 | 3.3
11 | C[C@@H]1CN(CC(=O)N2c3cc(Cc4ccc(F)cc4)c(CO)nc3OC[C@@H]2C)[C@@H](CN2CCOC[C@H]2C(F)F)CN1 [Compound 55] | 1.3 | 1.9 | 34
12 | C[C@@H]1CN(CC(=O)N2c3cc(Cc4ccc(F)cc4)c(NCCO)nc3OC[C@@H]2C)[C@@H](CN2[C@H](C)COC[C@H]2C)CN1 [Compound 109] | 0.24 | 0.45 | 10.3
13 | CC(C)OC[C@H]1COc2ncc(Cc3ccc(F)cc3)cc2N1C(=O)CN1C[C@@H](C)NC[C@@H]1CN1[C@H](C)COC[C@H]1C [Compound 39, 2-((2R,5R)-2-(((3R,5R)-3,5-dimethylmorpholino)methyl)-5-methylpiperazin-1-yl)-1-((S)-7-(4-fluorobenzyl)-2-(isopropoxymethyl)-2,3-dihydro-1H-pyrido[2,3-b][1,4]oxazin-1-yl)ethan-1-one] | 0.15 | 0.27 | 28
14 | CCS(=O)(=O)Nc1nc2c(cc1Cc1ccc(F)cc1)N(C(=O)CN1C[C@@H](C)NC[C@@H]1CN1[C@H](C)COC[C@H]1C)[C@@H](C)CO2 [Compound 122] | 0.19 | 0.29 | 2.9
15 | C[C@@H]1CN(CC(=O)N2c3cc(Cc4ccc(F)cc4)cnc3OCC23CC3)[C@@H](CN2CCOC[C@H]2C)CN1 [Compound 20, 1-(7′-(4-fluorobenzyl)-1′H,3′H-spiro[cyclopropane-1,2′-pyrido[2,3-b][1,4]oxazin]-1′-yl)-2-((2R,5R)-5-methyl-2-(((R)-3-methylmorpholino)methyl)piperazin-1-yl)ethan-1-one hydrochloride] | 9.9 | 25 | 140
16 | COCCOCCNC(=O)c1nc2c(cc1Cc1ccc(F)cc1)N(C(=O)CN1C[C@@H](C)NC[C@@H]1CN1[C@H](C)COC[C@H]1C)[C@@H](C)CO2 [Example 67, (S)-1-(2-((2R,5R)-2-(((3R,5R)-3,5-dimethylmorpholino)methyl)-5-methylpiperazin-1-yl)acetyl)-7-(4-fluorobenzyl)-N-(2-(2-methoxyethoxy)ethyl)-2-methyl-2,3-dihydro-1H-pyrido[2,3-b][1,4]oxazine-6-carboxamide] | 0.29 | 0.56 | 8.2
17 | C[C@@H]1CN(CC(=O)N2c3cc(Cc4ccc(F)cc4)c(C(N)=O)nc3OC[C@@H]2C)[C@@H](CN2[C@H](C)COC[C@H]2C)CN1 [Compound 32, (S)-1-(2-((2R,5R)-2-(((3R,5R)-3,5-dimethylmorpholino)methyl)-5-methylpiperazin-1-yl)acetyl)-7-(4-fluorobenzyl)-2-methyl-2,3-dihydro-1H-pyrido[2,3-b][1,4]oxazine-6-carboxamide] | 0.25 | 0.36 | 5.8
18 | C[C@@H]1CN(CC(=O)N2c3cc(Cc4ccc(F)cc4)c(N)nc3OC[C@@H]2C)[C@@H](CN2[C@H](C)COC[C@H]2C)CN1 [Compound 115, 1-((S)-6-amino-7-(4-fluorobenzyl)-2-methyl-2,3-dihydro-1H-pyrido[2,3-b][1,4]oxazin-1-yl)-2-((2R,5R)-2-(((3R,5R)-3,5-dimethylmorpholino)methyl)-5-methylpiperazin-1-yl)ethan-1-one] | 0.17 | 0.28 | 6.9
19 | C[C@@H]1CN(CC(=O)N2c3cc(Cc4ccc(F)cc4)cnc3OC[C@@H]2C2CCCCC2)[C@@H](CN2[C@H](C)COC[C@H]2C)CN1 [Compound 43, 1-((S)-2-cyclohexyl-7-(4-fluorobenzyl)-2,3-dihydro-1H-pyrido[2,3-b][1,4]oxazin-1-yl)-2-((2R,5R)-2-(((3R,5R)-3,5-dimethylmorpholino)methyl)-5-methylpiperazin-1-yl)ethan-1-one] | 0.23 | 0.27 | 23
